Test results from PMC4981864, “Novel pH-Sensitive Cyclic Peptides” (Scientific Reports, 2016).
Ends that are not written are not given here. Peptide text beside a SMILES is read from it.

How the values were obtained:
[1] = Steady-state tryptophan fluorescence and CD with and without POPC liposomes; format: physicochemical; settings: for maximum position of the fluorescence spectrum λmax, Pep, pH8: peptide in phosphate buffer pH 8, no liposomes; for maximum position of the fluorescence spectrum λmax, Pep, pH8 / maximum position of the fluorescence spectrum λmax, Pep-PC, pH3 / maximum position of the fluorescence spectrum λmax, Pep-PC, pH8: 5 μM peptide, excitation 280 nm, 25 °C; for maximum position of the fluorescence spectrum λmax, Pep-PC, pH3 / S, normalized area under the spectra, Pep-PC, pH3: with POPC liposomes pH 3; for maximum position of the fluorescence spectrum λmax, Pep-PC, pH3 / maximum position of the fluorescence spectrum λmax, Pep-PC, pH8: 1.25 mM lipids; for S, normalized area under the spectra, Pep-PC, pH3 / S, normalized area under the spectra, Pep-PC, pH8: normalized on area for peptide at pH 8 in absence of POPC; for maximum position of the fluorescence spectrum λmax, Pep-PC, pH8 / S, normalized area under the spectra, Pep-PC, pH8: with POPC liposomes pH 8
Method: (§1) Large unilamellar vesicles (LUVs) were prepared by extrusion. POPC, 1-palmitoyl-2-oleoyl-sn-glycero-3-phosphocholine (Avanti Polar Lipids), or a mixture of POPC with 0.5% of 18:1 NBD-PE, 1,2-dioleoyl-sn-glycero-3-phosphoethanolamine-N-7-nitro-2-1,3-benzoxadiazol-4-yl ammonium salt (Avanti Polar Lipids) were dissolved in chloroform, desolvated on a rotary evaporator, and dried under high vacuum for several hours. The phospholipid film was then rehydrated in 10 mM phosphate buffer pH 8.0, vortexed until the lipid bilayer was completely dissolved, and repeatedly (15–21 times) extruded through the membranes with 50 nm pore sizes to obtain LUVs.
Freshly prepared peptides and POPC vesicles were mixed to have 5 μM of a peptide and 1.25 mM of lipids in the final solution. Steady-state fluorescence measurements were carried out on a PC1 spectrofluorometer (ISS, Inc.) under temperature control at 25 °C. Tryptophan fluorescence was excited at 280 nm (there is no Phe or Tyr in the peptides) and recorded with the excitation and emission slits set at 1 nm. The polarizers in the excitation and emission paths were set at the “magic” angle (54.7° from the vertical orientation) and vertically (0°), respectively. Steady state CD measurements were carried out in MOS 450 spectropolarimeter (Bio-Logic, Inc.) with the same concentrations of peptide and lipids used in fluorescence measurements.

[2] = format: physicochemical; settings: pH 8
Method: as §1
pH-dependent partitioning of the peptides into a lipid bilayer of the membrane was investigated by the shift of the position of the fluorescence spectral maximum for the peptides in the presence POPC liposomes induced by a drop of pH from 8 to 2.5 by the addition of HCl. The peptides were incubated overnight with 50-nm POPC liposomes (final concentration of the peptides and POPC in solution was 5 μM and 1 mM, respectively), and pH decrease was achieved by the addition of aliquots of 4, 2, 1 and 0.1 M HCl. pH was measured by micro-electrode probe (Thermo Electron Corporation, Orion Ross Micro pH electrode). Fluorescence spectra were recorded at each pH value. The spectra were analyzed by the decomposition algorithms using on-line PFAST toolkit[47] (Protein Fluorescence and Structural Toolkit: http://pfast.phys.uri.edu/) to establish the position of the emission maximum. Finally, the positions of the fluorescence spectral maxima (λmax) were plotted versus pH, and the Henderson–Hasselbalch equation was used to fit the data (using Origin 8.5 software): […]
where [drawing 3] and [drawing 4] are the beginning and the end of the transition, respectively, and pKa – is the midpoint of the transition.

[3] = Dual quenching assay (acrylamide / 10-DN); format: physicochemical; settings: 7 μM peptide, 2.1 mM POPC; for percentage of fluorescence quenching, Pep-PC+AC pH3 / percentage of fluorescence quenching, Pep-PC+AC pH8: 235 mM acrylamide; for percentage of fluorescence quenching, Pep-PC+AC pH3 / percentage of fluorescence quenching, Pep-PC+10-DN pH3: pH 3; for percentage of fluorescence quenching, Pep-PC+AC pH8 / percentage of fluorescence quenching, Pep-PC+10-DN pH8: pH 8; for percentage of fluorescence quenching, Pep-PC+10-DN pH3 / percentage of fluorescence quenching, Pep-PC+10-DN pH8: 10% of lipids replaced by 10-DN
Description: To establish localization of the peptides within a lipid bilayer of membrane, dual quenching assay[28] was employed (Fig. 3 and Table S3). Effective quenching of fluorescence by acrylamide would occur only for tryptophan residues exposed to polar parts of the outer or inner leaflets of the bilayer. At the same time, tryptophan residues located in the middle of a membrane would be effectively quenched by 10-DN. The result of the dual quenching assay allows establishing if tryptophan residues were located in the middle of a membrane or close to the polar headgroups of the bilayer. […] Therefore, we also performed Förster resonance energy transfer (FRET) assay[29] (Fig. 4). First, symmetrically-labelled by NBD dye, POPC liposomes were prepared. Then, membrane-impermeable dithionite was used to chemically modify exposed NBD, which led to the quenching of NBD fluorescence. Thus, NBD dyes located at the outer leaflet of the bilayer were deactivated and excess of dithionite was removed by gel filtration. As a result, asymmetrically-labelled liposomes with active NBD at the inner leaflet were obtained. FRET was monitored from tryptophan residues of the peptides to NBD. Energy transfer might occur only when both fluorophores are in proximity to each other (within 5–15 Å). Thus, when tryptophan residues located at the outer leaflet of the bilayer no significant energy transfer to NBD at the inner leaflet would occur (the distance is about 50–60 Å). […] All other peptides were located at the outer leaflet of the bilayer at pH 8. Drop of pH promoted partitioning of all cyclic peptides into bilayer, which highest FRET for the c[E4W5C] at pH 3.
POPC liposomes without and with 10% of the lipids replaced by 10-doxylnonadecane (10-DN) (Avanti Polar Lipids) were prepared in 10 mM citrate-phosphate buffer pH 8.0. Peptides and POPC liposomes were mixed to generate final concentrations of 7 μM peptide and 2.1 mM POPC without and with 10-DN. […] Quencher, acrylamide (Sigma-Aldrich), was added to the samples of POPC liposomes containing no 10-DN, to have final concentration of 235 mM acrylamide. Concentration of peptides in all samples was kept constant. To observe quenching of tryptophan fluorescence by 10-DN or acrylamide, the tryptophan fluorescence was recorded as described above. The appropriate POPC blanks were measured and subtracted from the measured spectra before analysis. The percentage of quenching was calculated.

HeLa cells = settings: concentrations used in this study, treatment of 2-4 hours; cited from earlier work
Method: Symmetric, c[(WE)4WC], and asymmetric, c[E4W5C], cyclic peptides were evaluated for their ability to move polar cargo across the membrane. The experiments on live cells were performed at physiologically relevant pHs, such as pH 7.4 (extracellular pH of normal cells) and pH 6.0 (extracellular pH in the vicinity of cancer cells[12]). As a polar cargo, we used amanitin, which is a cell-impermeable cyclic p ...

Row | Compound | maximum position of the fluorescence spectrum λmax, Pep, pH8 [1] | maximum position of the fluorescence spectrum λmax, Pep-PC, pH3 [1] | S, normalized area under the spectra, Pep-PC, pH3 [1] | maximum position of the fluorescence spectrum λmax, Pep-PC, pH8 [1] | S, normalized area under the spectra, Pep-PC, pH8 [1] | apparent pK (pKa) of peptide's partitioning into the bilayer [2] | percentage of fluorescence quenching, Pep-PC+AC pH3 [3] | percentage of fluorescence quenching, Pep-PC+AC pH8 [3] | percentage of fluorescence quenching, Pep-PC+10-DN pH3 [3] | percentage of fluorescence quenching, Pep-PC+10-DN pH8 [3] | cell death by amanitin alone (HeLa cells) | pH-dependent interaction with / partitioning into the lipid bilayer of membrane ([1]; fluorescence and CD, POPC liposomes, pH 8 and pH 3)
1 | O=C(O)CC[C@@H]1NC(=O)[C@H](Cc2c[nH]c3ccccc23)NC(=O)[C@H](CS)NC(=O)[C@H](Cc2c[nH]c3ccccc23)NC(=O)[C@H](CCC(=O)O)NC(=O)[C@H](Cc2c[nH]c3ccccc23)NC(=O)[C@H](CCC(=O)O)NC(=O)[C@H](Cc2c[nH]c3ccccc23)NC(=O)[C@H](CCC(=O)O)NC(=O)[C@H](Cc2c[nH]c3ccccc23)NC1=O [c[(WE)4WC]] (cyclo(CWEWEWEWEW)) | 350.5±0.2 nm | 341.1±0.9 nm | 1.6±0.2 | 347.5±1.2 nm | 1.1±0.1 | 6.4 | 50% | 82% | 40% | 11% | – | –
2 | O=C(O)CC[C@@H]1NC(=O)[C@H](Cc2c[nH]c3ccccc23)NC(=O)[C@H](CS)NC(=O)[C@H](Cc2c[nH]c3ccccc23)NC(=O)[C@H](CCC(=O)O)NC(=O)[C@H](Cc2c[nH]c3ccccc23)NC(=O)[C@H](CCC(=O)O)NC(=O)[C@H](Cc2c[nH]c3ccccc23)NC1=O [c[(WE)3WC]] (cyclo(CWEWEWEW)) | 351.0±0.2 nm | 341.7±0.2 nm | 1.7±0.3 | 349.1±0.7 nm | 0.9±0.1 | 6.1 | 63% | 83% | 47% | 6% | – | –
3 | O=C(O)CC[C@@H]1NC(=O)[C@H](Cc2c[nH]c3ccccc23)NC(=O)[C@H](CS)NC(=O)[C@H](Cc2c[nH]c3ccccc23)NC(=O)[C@H](CCC(=O)O)NC(=O)[C@H](Cc2c[nH]c3ccccc23)NC(=O)[C@H](CCC(=O)O)NC(=O)[C@H](Cc2c[nH]c3ccccc23)NC(=O)[C@H](CCC(=O)O)NC(=O)[C@H](Cc2c[nH]c3ccccc23)NC(=O)[C@H](CCC(=O)O)NC(=O)[C@H](Cc2c[nH]c3ccccc23)NC1=O [c[(WE)5WC]] (cyclo(CWEWEWEWEWEW)) | 350.3±0.2 nm | 341.2±0.4 nm | 2.1±0.3 | 346.7±1.2 nm | 1.5±0.3 | 6.3 | 68% | 78% | 40% | 13% | – | –
4 | alpha-amanitin | – | – | – | – | – | – | – | – | – | – | does not induce cell death | –
5 | CWEWEWEWEW [l(CW(EW)4)] | – | – | – | – | – | 5.7 | – | – | – | – | – | –
6 | N=C(N)NCCC[C@@H]1NC(=O)[C@H](CS)NC(=O)[C@H](Cc2c[nH]c3ccccc23)NC(=O)[C@H](Cc2c[nH]c3ccccc23)NC(=O)[C@H](Cc2c[nH]c3ccccc23)NC(=O)[C@H](Cc2c[nH]c3ccccc23)NC(=O)[C@H](Cc2c[nH]c3ccccc23)NC(=O)[C@H](CCCNC(=N)N)NC(=O)[C@H](CCCNC(=N)N)NC(=O)[C@H](CCCNC(=N)N)NC1=O [c[R4W5C]] | – | – | – | – | – | – | – | – | – | – | – | does not exhibit pH-dependent changes
7 | CC(C)C[C@@H]1NC(=O)[C@H](CS)NC(=O)[C@H](Cc2c[nH]c3ccccc23)NC(=O)[C@H](CCC(=O)O)NC(=O)[C@H](CC(C)C)NC(=O)[C@H](CCC(=O)O)NC(=O)[C@H](CC(C)C)NC(=O)[C@H](CCC(=O)O)NC(=O)[C@H](CC(C)C)NC(=O)[C@H](CCC(=O)O)NC1=O [c[(LE)4WC]] (cyclo(CLELELELEW)) | 348.7±0.3 nm | 339.6±1.2 nm | 1.1±0.1 | 348.2±0.6 nm | 1.1±0.0 | 4.7 | 59% | 96% | 17% | 0% | – | –
